# Test results published in EP4810046A1, “USE OF PENTACYCLIC TRITERPENE COMPOUND TARGETING HYDROXYSTEROID 17-B DEHYDROGENASE 4” (Jiangsu Bcy Pharm. Co., Ltd, priority 2023, dated 2025).
# Legend:
# MFE-2 [1] = target: T1, MFE-2 (Mus musculus, UniProt P51660); experiment: MFE-2 protein expression in BV2 cells with and without LPS stimulation (Western blot); assay type: cell-based
# T1 construct: endogenous in cells; host or cells: BV2 mouse microglial cell line
# T1 sequence (P51660 1-735): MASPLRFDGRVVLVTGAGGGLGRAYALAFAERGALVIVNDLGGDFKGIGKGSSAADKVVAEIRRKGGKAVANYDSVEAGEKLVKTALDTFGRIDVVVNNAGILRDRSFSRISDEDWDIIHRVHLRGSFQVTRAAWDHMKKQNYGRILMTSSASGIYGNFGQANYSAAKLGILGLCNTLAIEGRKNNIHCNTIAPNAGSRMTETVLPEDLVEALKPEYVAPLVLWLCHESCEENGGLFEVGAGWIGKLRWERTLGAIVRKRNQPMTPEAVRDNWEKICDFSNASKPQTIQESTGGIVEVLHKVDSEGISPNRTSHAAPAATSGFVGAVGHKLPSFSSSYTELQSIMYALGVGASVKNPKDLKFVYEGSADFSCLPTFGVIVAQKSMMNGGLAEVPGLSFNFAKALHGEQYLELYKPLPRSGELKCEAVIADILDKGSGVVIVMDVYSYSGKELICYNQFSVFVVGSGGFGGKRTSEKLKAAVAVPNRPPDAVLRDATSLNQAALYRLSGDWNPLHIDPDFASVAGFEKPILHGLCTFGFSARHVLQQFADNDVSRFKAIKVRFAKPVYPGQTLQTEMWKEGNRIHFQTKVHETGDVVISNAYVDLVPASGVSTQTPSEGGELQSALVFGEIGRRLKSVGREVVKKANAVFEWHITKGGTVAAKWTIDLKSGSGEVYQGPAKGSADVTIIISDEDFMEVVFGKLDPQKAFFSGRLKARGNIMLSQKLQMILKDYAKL
# Experimental: Cell treatment: For cell treatment, CKBA was dissolved in DMSO to prepare a stock solution at a concentration of 5mM (1000×), stored at -20°C. For use, the stock solution was added to the cell culture medium at a dilution of 1:1000 and mixed well. The final working concentration was 5µM. Cells were treated for 24-48h and then collected for subsequent experiments.
# (§1) The Western blot procedure comprised: fresh cells or tissue samples were immersed in lysis buffer and placed on ice for 10-15 minutes. After observing that the cells/tissues were fully lysed into a homogeneous turbid liquid, the samples were placed on ice for an additional 10 minutes. Centrifugation was performed at 12000 rpm for 10 minutes, and the supernatant was collected. Total protein concentration was determined using the BCA method. Subsequently, steps including loading, electrophoresis, membrane transfer, blocking, and incubation with primary and secondary antibodies were carried out. After developing with ECL chemiluminescent substrate, ImageJ was used to analyze protein content.
# Further exploration was conducted to investigate the mode of action of CKBA on the MFE-2 protein.
# Solubility description = assay type: physicochemical; details: methanol/DMSO; water
# MFE-2 [2] = target: T1, MFE-2; experiment: CKBA-biotin pull-down and Western blot for direct binding to MFE-2; details: microglial cell line (BV2), CKBA-biotin 5µM, 6 hours
# Experimental: CKBA pull-down assay was performed to detect the direct interaction between CKBA and MFE-2. Specifically, CKBA was labeled with Biotin. CKBA-biotin was added to the culture medium at a final concentration of 5µM for 6 hours. Cells were then washed, lysed, and incubated with Streptavidin magnetic beads under rotation at 4°C for 3 hours. After washing the beads 4 times, loading buffer was added, and the samples were boiled at 96°C for 5 minutes. Western blot (WB) was used to detect MFE-2 protein levels to assess the direct interaction between the small molecule compound and MFE-2.
# as §1
# LPS-activated BV2 cells = experiment: CCK-8 assay of CKBA-treated LPS-activated BV2 cells; assay type: cell-based, mouse; details: 0.1-20 µM CKBA, 24 hours
# Experimental: The mouse microglial cell line BV2 was seeded into 96-well flat-bottom plates and cultured overnight to allow full cell adherence. BV2 cells were activated by stimulation with LPS. LPS (Sigma) stock solution (5 mg/mL) was added to the BV2 cell culture supernatant and mixed well. After 12 hours of activation, cell morphology was observed. […]
# Subsequently, a CCK8 assay (Dojindo, Japan) was performed to measure cell viability. The cell culture medium was removed from the 96-well plate, and 100 µL of diluted CCK8 reaction solution was added to each well. The plate was protected from light. Incubation conditions: 37°C incubator for about 1-2 hours. After 1 hour of incubation, the plate was removed, and the colorimetric (orange) signal was detected using a multifunctional microplate reader (Tecan Infinite 200 pro, Austria). Depending on the signal intensity, the plate could be further incubated for 1.5/2 hours, and the signal was measured at multiple time points. The colorimetric intensity values were recorded, and subsequent statistical analysis and graphing were performed using SPSS.
# In vitro cell experiments were performed to analyze the effect of CKBA on the inflammatory activation of microglia.
# inflammatory microglia = experiment: Seahorse energy metabolism (OCR) assay of CKBA-treated, LPS-stimulated BV2 cells; assay type: cell-based, mouse; details: Figure 4B
# Experimental: The specific methods for CKBA treatment and LPS activation of the BV2 cell line were as described above.
# The main steps of the Seahorse assay were as follows: Seahorse XF Cell Mitochondrial Stress Analysis: Single cells from brain tissue were obtained using the aforementioned experimental methods. Microglia in brain tissue were collected by flow cytometry sorting. Primary microglia were seeded into Seahorse XF cell culture plates 4-7 days in advance. After the cells were fully adherent, the probe plate was hydrated with double-distilled water and placed in a CO2-free 37°C incubator overnight. The next day, the calibration solution was replaced to further equilibrate and hydrate the probes. On the day of the experiment, the assay solution was prepared, and the corresponding substrates (glucose, pyruvate, glutamine, etc.) from the kit were added. The pH was adjusted to 7.4. […] OCR/ECAR values were recorded at different time points after drug addition. After recording, the cell plate was removed, and the number of microglia per well was counted under an inverted microscope. After normalizing OCR/ECAR to the cell number, intracellular mitochondrial stress levels were quantitatively analyzed.
# Seahorse energy metabolism analysis was performed. By measuring the changes in oxygen consumption reagents and dissolved oxygen content in the cell culture medium, the OCR of the cells was calculated.
# [3] = mouse, po, 100 mg/kg
# Experimental: Based on the above optimized method, the absolute content of CKBA in brain tissue was further detected. For absolute content detection of CKBA in brain tissue, normal mice were administered CKBA by oral gavage. One hour after administration, the mice were perfused, and fresh brain tissue and serum were collected for mass spectrometry analysis.
# AD mice = experiment: Behavioral tests (Morris water maze, open field, Y-maze) in AD mice after oral gavage treatment; assay type: in vivo; details: compared with vehicle control group
# Experimental: For evaluation of therapeutic efficacy in animal models, a 15mg/mL CKBA suspension (solvent: 0.5% sodium carboxymethylcellulose) was administered by oral gavage at a volume of 200µL (equivalent to a dose of 100mg/kg). […] Therapeutic efficacy was evaluated after the treatment period.
# • (1) 5xFAD transgenic mice: These mice overexpress mutant human APP (695) carrying the Swedish (K670N, M671L), Florida (I716V) and London (V717I) familial Alzheimer's disease (FAD) mutations, as well as human PS1 carrying two FAD mutations (M146L and L286V). Expressions of both transgenes are driven by the mouse neuron-specific regulatory element Thy1 promoter to achieve overexpression in the brain. […] 5XFAD mice produce almost exclusively Aβ-42 and rapidly accumulate it in the brain. • (2) Preparation of MS mouse (EAE) model and evaluation of CKBA intervention efficacy
# Evaluation of the therapeutic effect of CKBA on AD: 8-10 month old 5xFAD mice, 5xFAD mice treated with the small molecule drug CKBA and control mice were subjected to behavioral tests including the Morris water maze, open field test and rotarod test to evaluate higher central nervous system functions. During the behavioral tests, the animal movement trajectory tracking system (EthoVision XT 16.0) was used for full-recording and offline analysis.
# Morris water maze: Mice underwent a 5-day adaptive training period, wherein abnormal individuals were excluded. On the final day, after removing the platform, a probe trial was performed. Quantitative data were recorded, including the escape latency after entering the water in each quadrant during the learning phase, the number of platform crossings, and the latency to reach the platform area.
# Open field test: The spontaneous activity path of mice in a 50cm*50cm*40 cm novel open field within 5 minutes was recorded. The distance traveled and time spent in the center area were analyzed to assess anxiety-related behavior.
# AD mice were treated with CKBA by oral gavage (Figure 5A) for in vivo intervention studies, with continuous intervention for 3 months. […]
smiles,measurement,setting,value
"C[C@H]1[C@H](C)CC[C@]2(C)CC[C@]3(C)C(=CC(=O)[C@@H]4[C@@]5(C)CC[C@@H](OC(=O)C6CCCCC6)[C@](C)(C(=O)O)[C@@H]5CC[C@]43C)[C@H]12 [CKBA, 3-o-α-cyclohexanoyl-11-keto-β-boswellic acid]",expression and content of MFE-2 after LPS stimulation,MFE-2 [1]; LPS-stimulated BV2 cells,effectively maintained the expression and content of MFE-2
same,baseline expression level of MFE-2,"MFE-2 [1]; normal BV2 cells, no LPS",did not affect the baseline expression level of MFE-2
same,solubility,Solubility description,"lipophilic, soluble in methanol/DMSO, insoluble in water"
same,binding to MFE-2 protein (pull-down),MFE-2 [2],could bind to the MFE-2 protein
same,expansion of inflammatory microglia,LPS-activated BV2 cells,significantly inhibited the expansion of inflammatory microglia
same,peroxisome stability,LPS-activated BV2 cells,maintained peroxisome stability
same,activity of inflammatory microglia (OCR),inflammatory microglia,significantly inhibited the activity of inflammatory microglia
same,blood-brain barrier permeability,[3],could effectively cross the blood-brain barrier
same,platform crossover number,AD mice,significant increase
same,time spent in the opposite quadrant,AD mice,significant decrease
same,time spent in the specific effective area (center area) as a percentage of total movement time,AD mice,significant increase
